Where a name gives a salt, the structure may show the parent alone.
SMILES | melting point [°C]
c1ccc(-c2ccc3oc(N4CCN5CCC4CC5)nc3c2)cc1 | > 300
O=[N+]([O-])c1ccc2oc(N3CCN4CCC3CC4)nc2c1 | 240.2
c1ccc2cc3oc(N4CCN5CCC4CC5)nc3cc2c1 | > 300
c1ccc(-c2ccc3nc(N4CCN5CCC4CC5)oc3c2)cc1 | 281.3
Ic1ccc2oc(N3CCN4CCC3CC4)nc2c1 | > 300
O=[N+]([O-])c1cc2nc(N3CCN4CCC3CC4)oc2cc1Cl | 242.3
c1ccc2c(c1)ccc1oc(N3CCN4CCC3CC4)nc12 | 167.2
c1cncc(-c2ccc3oc(N4CCN5CCC4CC5)nc3c2)c1 | > 300
c1ccc2[nH]c(N3CCN4CCC3CC4)nc2c1 | > 300
O=[N+]([O-])c1cc2oc(N3CCN4CCC3CC4)nc2cc1Cl (as salt: hydrochloride) | > 300
O=[N+]([O-])c1cccc2oc(N3CCN4CCC3CC4)nc12 | 232.1
O=[N+]([O-])c1ccc2nc(N3CCN4CCC3CC4)oc2c1 | 296.4
Brc1cnc2oc(N3CCN4CCC3CC4)nc2c1 | > 300

Source: patent publication US6809094B2, “Pharmaceutical composition for the treatment of CNS and other disorders” (Pfizer Inc, priority 2000, dated 2004)
